Numbering of substitutions follows the chain as printed. Like-named read-outs stand apart in the source and are kept apart here.

Test [1] deals with T1, maize endosperm AGPase, large subunit variant RG (Q96R, D161G; numbering of SEQ ID NO: 20) (Zea mays, UniProt P55241+Q84PF5, D161G/Q96R).
T1 sequence (P55241 46-516 D161G/Q96R): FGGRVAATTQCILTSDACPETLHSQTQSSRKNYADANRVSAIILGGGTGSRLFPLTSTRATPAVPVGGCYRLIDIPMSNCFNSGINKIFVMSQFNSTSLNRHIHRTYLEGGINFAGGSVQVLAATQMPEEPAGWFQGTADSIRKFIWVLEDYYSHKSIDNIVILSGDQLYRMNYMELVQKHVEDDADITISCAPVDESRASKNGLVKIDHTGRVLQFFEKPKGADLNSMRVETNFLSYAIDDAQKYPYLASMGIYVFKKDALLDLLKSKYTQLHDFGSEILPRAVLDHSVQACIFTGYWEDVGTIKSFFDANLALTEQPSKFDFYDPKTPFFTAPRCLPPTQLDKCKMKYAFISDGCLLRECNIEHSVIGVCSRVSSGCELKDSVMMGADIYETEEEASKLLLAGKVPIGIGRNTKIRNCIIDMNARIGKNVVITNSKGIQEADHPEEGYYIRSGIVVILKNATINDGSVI
T1 sequence (Q84PF5 1-474): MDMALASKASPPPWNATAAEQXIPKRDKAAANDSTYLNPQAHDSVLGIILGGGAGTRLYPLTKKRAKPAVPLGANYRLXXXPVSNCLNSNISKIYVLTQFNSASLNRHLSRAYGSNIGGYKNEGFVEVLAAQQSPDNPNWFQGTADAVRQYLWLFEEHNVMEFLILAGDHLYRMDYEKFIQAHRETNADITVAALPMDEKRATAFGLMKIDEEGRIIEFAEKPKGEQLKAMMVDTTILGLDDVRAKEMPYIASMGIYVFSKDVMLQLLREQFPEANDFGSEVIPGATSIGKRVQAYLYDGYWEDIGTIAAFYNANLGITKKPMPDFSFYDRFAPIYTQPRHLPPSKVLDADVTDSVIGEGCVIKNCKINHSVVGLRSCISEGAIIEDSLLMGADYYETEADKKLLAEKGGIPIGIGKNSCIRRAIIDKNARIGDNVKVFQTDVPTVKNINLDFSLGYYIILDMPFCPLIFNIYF
Nature of the test: Apparent kinetic constants with 3-PGA, 37° C., RG. The conditions noted are these: read-out: ATP Km. It counts as biochemical. The text has this:
(§1) The small and large subunit plasmids of maize endosperm AGPase (pMONcBt2 and pMONcSh2, respectively) (Giroux et al., 1996) were expressed in E. coli AC70R1-504 cells (Iglesias et al., 1993) as previously described (Boehlein et al., 2008).
(§2) An endpoint assay was used to determine the rate of the AGPase reaction by coupling the formation of PPi to a decrease in NADH concentration (Boehlein et al., 2008). […] The Michaelis constants (Km) were obtained by varying one substrate in the presence of saturating concentrations of the second substrate. The activation constants were obtained by varying the activator at fixed levels of both substrates. All reactions were performed at 37° C. and mixes were prewarmed before starting the reaction with enzyme. […] The absorbance at 340 nm was monitored after 30 min and the amount of PPi produced was determined from a standard curve using PPi in complete reaction mixtures lacking AGPase. Blank samples contained complete reaction mixtures without enzyme and the change in absorbance between the blank and the reaction was used to calculate the amount of PPi produced. […]
(§3) The apparent Michaelis constant and maximum velocity of each reaction was calculated from a V vs. S plots using nonlinear regression analysis and the following equation, v=VmaxS/(Km+S), where v is the measured velocity, Vmax is the maximum velocity, S is the substrate concentration. […]

The target of test [2] is T2, maize endosperm AGPase, large subunit variant GGR (Q96G, D161G, A443R; numbering of SEQ ID NO: 20) (Zea mays, UniProt P55241+Q84PF5, A443R/D161G/Q96G).
T2 sequence (P55241 46-516 A443R/D161G/Q96G): T1 sequence (P55241 46-516 D161G/Q96R) with R51G, A398R
T2 sequence (Q84PF5 1-474): T1 sequence (Q84PF5 1-474)
Nature of the test: Apparent kinetic constants with 3-PGA, 37° C., GGR. Format: biochemical. The following applies: read-out: ATP Km.
Text: as §1, §2, §3

The test system of test [3] is maize endosperm AGPase, wild type. The following applies: cited from earlier work.
In test [4] the test system is maize endosperm AGPase, evolutionary mutant SH2-E (SH2E). The conditions noted are these: presence of 3-PGA, ATP varied, Pi inhibition, NC, read-out: Km (ATP); cited from earlier work.

On to `Nc1ncnc2c1ncn2[C@@H]1O[C@H](COP(=O)(O)OP(=O)(O)OP(=O)(O)O)[C@@H](O)[C@H]1O` [ATP], for which the Michaelis-Menten constant (Km) – broadly, the substrate concentration at which the rate is half of its maximum – in test [1] was 63 µM; in test [2] it was 57 µM; in test [3] (Maize wt, absence of 3-PGA, ATP varied, Pi inhibition, P-MT, read-out: Km (ATP)), 20400 µM; in test [3] (wt maize AGPase, absence of activator, Pi inhibition assay, read-out: Km for both substrates) it was greater than 20000 µM; in test [4], 210 µM.

Values taken from patent US9650616B2, “Methods for increasing grain yield” (University of Florida Research Foundation, Inc., priority 2014, dated 2017).
